According to BigSolDB 2.1:

Cc1[nH]nc2cc([N+](=O)[O-])ccc12
solubility (mole fraction)
Conditions	in ethanol	in n-propanol	in water
278.15 K	0.00471	0.0051	2.06e-05
283.15 K	0.00539	0.00574	2.7e-05
288.15 K	0.00619	0.00682	3.52e-05
293.15 K	0.0073	0.00793	4.67e-05
298.15 K	0.00866	0.00901	6.15e-05
303.15 K	0.0102	0.0103	7.91e-05
308.15 K	0.0118	0.0118	9.98e-05
313.15 K	0.0137	0.0133	0.000123
318.15 K	0.016	0.0149	0.000151
323.15 K	0.019	0.017	0.000182
328.15 K	0.022	0.0194	0.000222
